{
  "source": "patent US20020137929A1",
  "about": "“1 - (3-heterocyclylphenyl) isothiourea, -isourea, -guanidine and -amidine herbicidal agents” (Intellectual Property Department, BASF Aktiengesellschaft, priority 1998, published 2002)",
  "key": {"AMBEL (Ragweed, Common)": {"system": "AMBEL (Ragweed, Common)", "assay": "Preemergence herbicidal evaluation", "type": "in vivo, Ambrosia artemisifolia", "conditions": "rated 4-5 weeks after treatment", "method_in_brief": "(§1)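 Herbicidal effect scored visually, 0-9, at 4 to 5 weeks against a control; compound applied preemergence by aqueous acetone spray to seeded soil at about 0.0156 to 0.500 kg/ha.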"}, "ECHCG (Barnyardgrass)": {"system": "ECHCG (Barnyardgrass)", "assay": "Preemergence herbicidal evaluation", "type": "in vivo, Echinochloa crus-galli", "conditions": "rated 4-5 weeks after treatment", "method_in_brief": "as §1"}, "[1]": {"system": "GLXMAW (Soybean, Williams)", "assay": "Postemergence herbicidal evaluation", "type": "in vivo, Glycine max, (L.) Merr. cv Williams", "conditions": "postemergence", "method_in_brief": "(§2)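 Two-week seedlings sprayed postemergence at 40 psi; formulation: 1:1 acetone/water, 0.5% TWEEN 20; application ≈0.0156–0.500 kg/ha. Greenhouse grow-out, then 0–9 visual scoring at 4–5 weeks.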"}, "[2]": {"system": "ECHORC (Watergrass (Calif.))", "assay": "Preemergence weed control under flooded paddy conditions", "type": "in vivo, Echinochloa oryzoides", "conditions": "rated 3-4 weeks after treatment", "method_in_brief": "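Herbicidal effect is scored visually on a 0-9 scale against an untreated control, three to four weeks after compounds are pipetted into the flood water (1.5 to 3 cm deep) over seeds planted in silt loam at 0.5 cm depth. Rates: about 0.0313 to 0.500 kg/ha.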"}, "ABUTH (Velvetleaf) [3]": {"system": "ABUTH (Velvetleaf)", "assay": "Postemergence herbicidal evaluation", "type": "in vivo, Abutilon theophrasti", "conditions": "postemergence", "method_in_brief": "as §2"}, "ZEAMX (Corn, Field)": {"system": "ZEAMX (Corn, Field)", "assay": "Postemergence herbicidal evaluation", "type": "in vivo, Zea mays", "conditions": "postemergence", "method_in_brief": "as §2"}, "CASOB (Sicklepod)": {"system": "CASOB (Sicklepod)", "assay": "Preemergence herbicidal evaluation", "type": "in vivo, Cassia obtusifolia", "conditions": "rated 4-5 weeks after treatment", "method_in_brief": "as §1"}, "ABUTH (Velvetleaf) [4]": {"system": "ABUTH (Velvetleaf)", "assay": "Preemergence herbicidal evaluation", "type": "in vivo, Abutilon theophrasti", "conditions": "rated 4-5 weeks after treatment", "method_in_brief": "as §1"}, "CYPSE (Flatsedge)": {"system": "CYPSE (Flatsedge)", "assay": "Preemergence weed control under flooded paddy conditions", "type": "in vivo, Cyperus serotinus", "conditions": "rated 3-4 weeks after treatment", "method_in_brief": "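Using flooded silt loam (water 1.5 to 3 cm deep), seeds sown in the top 0.5 cm were exposed preemergence to compound pipetted into the flood at about 0.0313 to 0.500 kg/ha. Effects were scored 0-9 by eye three to four weeks later.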"}, "SETVI (Foxtail, Green)": {"system": "SETVI (Foxtail, Green)", "assay": "Postemergence herbicidal evaluation", "type": "in vivo, Setaria viridis", "conditions": "postemergence", "method_in_brief": "as §2"}, "[5]": {"system": "IPOHE (Morningglory, Ivyleaf)", "assay": "Preemergence herbicidal evaluation", "type": "in vivo, Ipomoea hederacea", "conditions": "rated 4-5 weeks after treatment", "method_in_brief": "as §1"}, "[6]": {"system": "IPOHE (Morningglory, Ivyleaf)", "assay": "Postemergence herbicidal evaluation", "type": "in vivo, Ipomoea hederacea", "conditions": "postemergence", "method_in_brief": "as §2"}},
  "data": [
    {"compound": "Cn1c(C(F)(F)F)cc(=O)n(-c2cc(N=C3SCC(=O)N3CC(F)(F)F)c(Cl)cc2F)c1=O", "note": "[Compound 163, 3-{4-Chloro-2-fluoro-5-{[4-oxo-3-(2,2,2-trifluoroethyl)-2-thiazolidinylidene]amino}phenyl}-1-methyl-6-(trifluoromethyl)-2,4(1H,3H)-pyrimidinedione]", "values": [
      {"measurement": "Preemergence herbicidal rating AMBEL", "setting": "AMBEL (Ragweed, Common); 0.0156 kg/ha", "result": 0.0},
      {"measurement": "Preemergence herbicidal rating AMBEL", "setting": "AMBEL (Ragweed, Common); 0.0313 kg/ha", "result": 3.0},
      {"measurement": "Preemergence herbicidal rating AMBEL", "setting": "AMBEL (Ragweed, Common); 0.0625 kg/ha", "result": 9.0},
      {"measurement": "Preemergence herbicidal rating AMBEL", "setting": "AMBEL (Ragweed, Common); 0.1250 kg/ha", "result": 9.0},
      {"measurement": "Preemergence herbicidal rating AMBEL", "setting": "AMBEL (Ragweed, Common); 0.2500 kg/ha", "result": 9.0},
      {"measurement": "Preemergence herbicidal rating ECHCG", "setting": "ECHCG (Barnyardgrass); 0.0156 kg/ha", "result": 2.0},
      {"measurement": "Preemergence herbicidal rating ECHCG", "setting": "ECHCG (Barnyardgrass); 0.0313 kg/ha", "result": 4.0},
      {"measurement": "Preemergence herbicidal rating ECHCG", "setting": "ECHCG (Barnyardgrass); 0.0625 kg/ha", "result": 7.0},
      {"measurement": "Preemergence herbicidal rating ECHCG", "setting": "ECHCG (Barnyardgrass); 0.1250 kg/ha", "result": 8.0},
      {"measurement": "Preemergence herbicidal rating ECHCG", "setting": "ECHCG (Barnyardgrass); 0.2500 kg/ha", "result": 9.0},
      {"measurement": "herbicidal rating GLXMAW", "setting": "[1]; rate 0.0156 kg/ha", "result": 6.0},
      {"measurement": "herbicidal rating GLXMAW", "setting": "[1]; rate 0.0313 kg/ha", "result": 7.0},
      {"measurement": "herbicidal rating GLXMAW", "setting": "[1]; rate 0.0625 kg/ha", "result": 8.0},
      {"measurement": "herbicidal effect rating, ECHORC", "setting": "[2]; 0.0313 kg/ha", "result": 9.0},
      {"measurement": "herbicidal effect rating, ECHORC", "setting": "[2]; 0.0625 kg/ha", "result": 9.0},
      {"measurement": "herbicidal effect rating, ECHORC", "setting": "[2]; 0.1250 kg/ha", "result": 9.0},
      {"measurement": "herbicidal effect rating, ECHORC", "setting": "[2]; 0.2500 kg/ha", "result": 9.0},
      {"measurement": "herbicidal rating ABUTH", "setting": "ABUTH (Velvetleaf) [3]; rate 0.0156 kg/ha", "result": 9.0},
      {"measurement": "herbicidal rating ABUTH", "setting": "ABUTH (Velvetleaf) [3]; rate 0.0313 kg/ha", "result": 9.0},
      {"measurement": "herbicidal rating ABUTH", "setting": "ABUTH (Velvetleaf) [3]; rate 0.0625 kg/ha", "result": 9.0},
      {"measurement": "herbicidal rating ZEAMX", "setting": "ZEAMX (Corn, Field); rate 0.0156 kg/ha", "result": 5.0},
      {"measurement": "herbicidal rating ZEAMX", "setting": "ZEAMX (Corn, Field); rate 0.0313 kg/ha", "result": 5.5},
      {"measurement": "herbicidal rating ZEAMX", "setting": "ZEAMX (Corn, Field); rate 0.0625 kg/ha", "result": 5.5},
      {"measurement": "Preemergence herbicidal rating CASOB", "setting": "CASOB (Sicklepod); 0.0156 kg/ha", "result": 0.0},
      {"measurement": "Preemergence herbicidal rating CASOB", "setting": "CASOB (Sicklepod); 0.0313 kg/ha", "result": 0.0},
      {"measurement": "Preemergence herbicidal rating CASOB", "setting": "CASOB (Sicklepod); 0.0625 kg/ha", "result": 0.0},
      {"measurement": "Preemergence herbicidal rating CASOB", "setting": "CASOB (Sicklepod); 0.1250 kg/ha", "result": 0.0},
      {"measurement": "Preemergence herbicidal rating CASOB", "setting": "CASOB (Sicklepod); 0.2500 kg/ha", "result": 5.0},
      {"measurement": "Preemergence herbicidal rating ABUTH", "setting": "ABUTH (Velvetleaf) [4]; 0.0156 kg/ha", "result": 9.0},
      {"measurement": "Preemergence herbicidal rating ABUTH", "setting": "ABUTH (Velvetleaf) [4]; 0.0313 kg/ha", "result": 9.0},
      {"measurement": "Preemergence herbicidal rating ABUTH", "setting": "ABUTH (Velvetleaf) [4]; 0.0625 kg/ha", "result": 9.0},
      {"measurement": "Preemergence herbicidal rating ABUTH", "setting": "ABUTH (Velvetleaf) [4]; 0.1250 kg/ha", "result": 9.0},
      {"measurement": "Preemergence herbicidal rating ABUTH", "setting": "ABUTH (Velvetleaf) [4]; 0.2500 kg/ha", "result": 9.0},
      {"measurement": "herbicidal effect rating, CYPSE", "setting": "CYPSE (Flatsedge); 0.1250 kg/ha", "result": 9.0},
      {"measurement": "herbicidal effect rating, CYPSE", "setting": "CYPSE (Flatsedge); 0.2500 kg/ha", "result": 9.0},
      {"measurement": "herbicidal rating SETVI", "setting": "SETVI (Foxtail, Green); rate 0.0156 kg/ha", "result": 0.0},
      {"measurement": "herbicidal rating SETVI", "setting": "SETVI (Foxtail, Green); rate 0.0625 kg/ha", "result": 3.0},
      {"measurement": "Preemergence herbicidal rating IPOHE", "setting": "[5]; 0.0156 kg/ha", "result": 0.0},
      {"measurement": "Preemergence herbicidal rating IPOHE", "setting": "[5]; 0.0313 kg/ha", "result": 0.0},
      {"measurement": "Preemergence herbicidal rating IPOHE", "setting": "[5]; 0.0625 kg/ha", "result": 3.0},
      {"measurement": "Preemergence herbicidal rating IPOHE", "setting": "[5]; 0.1250 kg/ha", "result": 9.0},
      {"measurement": "Preemergence herbicidal rating IPOHE", "setting": "[5]; 0.2500 kg/ha", "result": 9.0},
      {"measurement": "herbicidal rating IPOHE", "setting": "[6]; rate 0.0156 kg/ha", "result": 9.0},
      {"measurement": "herbicidal rating IPOHE", "setting": "[6]; rate 0.0313 kg/ha", "result": 9.0},
      {"measurement": "herbicidal rating IPOHE", "setting": "[6]; rate 0.0625 kg/ha", "result": 9.0}
    ]}
  ]
}
